Laboratory results from patent US9783532B2, “Molecules having certain pesticidal utilities, and intermediates, compositions, and processes related thereto” (Dow AgroSciences LLC, priority 2013, dated 2017).
Read-outs that look alike come from different tables or passages of the source.

Tests used:
[1] = tested on: Beet Armyworm (Spodoptera exigua) ("BAW"); experiment: Bioassay on beet armyworm (BAW), 128-well diet tray assay; format: in vivo; conditions: for pest or weed control at 50 µg/cm2: activity rating class, read-out: BAW (Biological Results, Insect species); for mortality at 50 µg/cm2: 168 h, 50 μg/cm^2 on artificial diet, second instar BAW larvae, 25° C., five to seven days, average of eight wells, read-out: BAW % Control (or Mortality) rating
How it was run: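 Second-instar larvae (one to five per well) were placed on artificial diet surface-treated with 50 μg/cm^2 compound applied in 90:10 acetone-water and dried, eight wells per compound. Held at 25° C., 14:10 light-dark for five to seven days; percent mortality was scored per well and averaged over the eight wells.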

[2] = tested on: Cabbage Looper (Trichoplusia ni) ("CL"); experiment: Bioassay on cabbage looper (CL), 128-well diet tray assay; format: in vivo; conditions: for pest or weed control at 50 µg/cm2: activity rating class, read-out: CL (Biological Results, Insect species); for mortality at 50 µg/cm2: 168 h, 50 μg/cm^2 on artificial diet, second instar CL larvae, 25° C., five to seven days, average of eight wells, read-out: CL % Control (or Mortality) rating
How it was run: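 Second-instar larvae (one to five per well) placed on artificial diet surface-treated with 50 μg/cm^2 compound in 90:10 acetone-water, dried before infestation. Held 25 °C, 14:10 light-dark for five to seven days; percent mortality scored per well and averaged over eight wells.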

Compound | mortality at 50 µg/cm2 [1] [%] | mortality at 50 µg/cm2 [2] [%] | pest or weed control at 50 µg/cm2 ([1]; Table ABC (FB)) [%] | pest or weed control at 50 µg/cm2 ([2]; Table ABC (FB)) [%] | also measured
COc1ccc(NC(=S)NC(=O)NCCCc2cccc(-c3ncn(-c4ccc(OC(F)(F)F)cc4)n3)c2)c(C)c1 [PC131, 1-[(4-methoxy-2-methyl-phenyl)carbamothioyl]-3-[3-[3-[1-[4-(trifluoromethoxy)phenyl]-1H-1,2,4-triazol-3-yl]phenyl]propyl]urea] |  |  |  |  | pest or weed control at 50 µg/cm2 ([1]; Table ABC (PC)): 50 to 100%; pest or weed control at 50 µg/cm2 ([2]; Table ABC (PC)): 50 to 100%
CCc1ccccc1N1C(=O)CS/C1=N\C(=O)NCCCc1cccc(-c2ncn(-c3ccc(OC(F)(F)F)cc3)n2)c1 [P119, (Z)-1-(3-(2-ethylphenyl)-4-oxothiazolidin-2-ylidene)-3-(3-(3-(1-(4-(trifluoromethoxy)phenyl)-1H-1,2,4-triazol-3-yl)phenyl)propyl)urea] | 50 to 100 | 50 to 100 |  |  | 
CCc1ccccc1N1C(=O)CS/C1=N\C(=O)NCc1ccc(-c2ncn(-c3ccc(OC(F)(F)F)cc3)n2)cc1 [P2, P532, (Z)-1-(3-(2-ethylphenyl)-4-oxothiazolidin-2-ylidene)-3-(4-(1-(4-(trifluoromethoxy)phenyl)-1H-1,2,4-triazol-3-yl)benzyl)urea] | 50 to 100 | 50 to 100 |  |  | 
CCn1s/c(=N\C(=O)NCCc2ccc(-c3ncn(-c4ccc(OC(F)(F)F)cc4)n3)cc2)n(-c2ccc(F)cc2C(C)C)c1=O [FB13, (Z)-1-(2-ethyl-4-(4-fluoro-2-isopropylphenyl)-3-oxo-1,2,4-thiadiazolidin-5-ylidene)-3-(4-(1-(4-(trifluoromethoxy)phenyl)-1H-1,2,4-triazol-3-yl)phenethyl)urea] |  |  | 0 to 50 | 50 to 100 | 
CC(C)c1ccc(Cl)cc1N1C(=O)CS/C1=N\C(=O)NCCc1ccc(-c2ncn(-c3ccc(C(F)(F)F)cc3)n2)cc1 [FB50, (Z)-1-(3-(5-chloro-2-isopropylphenyl)-4-oxothiazolidin-2-ylidene)-3-(4-(1-(4-(trifluoromethyl)phenyl)-1H-1,2,4-triazol-3-yl)phenethyl)urea] |  |  | 50 to 100 | 50 to 100 | 
Cc1ccc(C(C)C)c(N2CCCS/C2=N\C(=O)NCCc2ccc(-c3ncn(-c4ccc(OC(F)(F)F)cc4)n3)cc2)c1 [P59, (Z)-1-(3-(2-isopropyl-5-methylphenyl)-1,3-thiazinan-2-ylidene)-3-(4-(1-(4-(trifluoromethoxy)phenyl)-1H-1,2,4-triazol-3-yl)phenethyl)urea] | 50 to 100 | 50 to 100 |  |  | 
Cc1ccc(C(C)C)c(N2C(=O)CS/C2=N\C(=O)NCc2ccc(-c3ncn(-c4ccc(OC(F)(F)C(F)(F)F)cc4)n3)cc2)c1 [F19, (Z)-1-(3-(2-isopropyl-5-methylphenyl)-4-oxothiazolidin-2-ylidene)-3-(4-(1-(4-(perfluoroethoxy)phenyl)-1H-1,2,4-triazol-3-yl)benzyl)urea] | 50 to 100 | 50 to 100 |  |  | 
CC(C)c1ccc(Cl)cc1N1C(=O)CS/C1=N\C(=O)NCc1cccc(-c2ncn(-c3ccc(OC(F)(F)F)cc3)n2)c1 [FB35, (Z)-1-(3-(5-chloro-2-isopropylphenyl)-4-oxothiazolidin-2-ylidene)-3-(3-(1-(4-(trifluoromethoxy)phenyl)-1H-1,2,4-triazol-3-yl)benzyl)urea] |  |  | 50 to 100 | 50 to 100 | 
Cc1ccc(C(C)C)c(NC(=S)NC(=O)NCCCCc2ccc(-c3ncn(-c4ccc(C(F)(F)F)cc4)n3)cc2)c1 [PC159, 1-[(2-isopropyl-5-methyl-phenyl)carbamothioyl]-3-[4-[4-[1-[4-(trifluoromethyl)phenyl]-1H-1,2,4-triazol-3-yl]phenyl]butyl]urea] |  |  |  |  | pest or weed control at 50 µg/cm2 ([1]; Table ABC (PC)): 50 to 100%; pest or weed control at 50 µg/cm2 ([2]; Table ABC (PC)): 50 to 100%
Cc1ccccc1N1C(=O)CS/C1=N\C(=O)NCc1cccc(-c2ncn(-c3ccc(OC(F)(F)F)cc3)n2)c1 [FB27, (Z)-1-(4-oxo-3-(o-tolyl)thiazolidin-2-ylidene)-3-(3-(1-(4-(trifluoromethoxy)phenyl)-1H-1,2,4-triazol-3-yl)benzyl)urea] |  |  | 50 to 100 | 50 to 100 | 
CC(C)c1ccc(Cl)cc1N1C(=O)CS/C1=N\C(=O)NCCCCc1cccc(-c2ncn(-c3ccc(OC(F)(F)F)cc3)n2)c1 [FB39, (Z)-1-(3-(5-chloro-2-isopropylphenyl)-4-oxothiazolidin-2-ylidene)-3-(4-(3-(1-(4-(trifluoromethoxy)phenyl)-1H-1,2,4-triazol-3-yl)phenyl)butyl)urea] |  |  | 50 to 100 | 50 to 100 | 
Cc1ccc(N2C(=O)CS/C2=N\C(=O)NCCCc2cccc(-c3ncn(-c4ccc(OC(F)(F)F)cc4)n3)c2)c(C(C)C)c1 [P128, (Z)-1-(3-(2-isopropyl-4-methylphenyl)-4-oxothiazolidin-2-ylidene)-3-(3-(3-(1-(4-(trifluoromethoxy)phenyl)-1H-1,2,4-triazol-3-yl)phenyl)propyl)urea] | 50 to 100 | 50 to 100 |  |  | 
Cc1ccc(N2C(=O)CS/C2=N\C(=O)NCCCCc2cccc(-c3ncn(-c4ccc(OC(F)(F)F)cc4)n3)c2)c(C(C)C)c1 [P180, (Z)-1-(3-(2-isopropyl-4-methylphenyl)-4-oxothiazolidin-2-ylidene)-3-(4-(3-(1-(4-(trifluoromethoxy)phenyl)-1H-1,2,4-triazol-3-yl)phenyl)butyl)urea] | 0 | 50 to 100 |  |  | 
Cc1ccc(C(C)C)c(N2C(=O)CS/C2=N\C(=O)N[C@H](C)Cc2ccc(-c3ncn(-c4ccc(OC(F)(F)F)cc4)n3)cc2)c1 [FB45, (R,Z)-1-(3-(2-isopropyl-5-methylphenyl)-4-oxothiazolidin-2-ylidene)-3-(1-(4-(1-(4-(trifluoromethoxy)phenyl)-1H-1,2,4-triazol-3-yl)phenyl)propan-2-yl)urea] |  |  | 50 to 100 | 50 to 100 | 
COc1ccc(C(C)C)c(N2C(=O)CS/C2=N\C(=O)NCCCCc2cccc(-c3ncn(-c4ccc(OC(F)(F)F)cc4)n3)c2)c1 [P182, (Z)-1-(3-(2-isopropyl-5-methoxyphenyl)-4-oxothiazolidin-2-ylidene)-3-(4-(3-(1-(4-(trifluoromethoxy)phenyl)-1H-1,2,4-triazol-3-yl)phenyl)butyl)urea] | 50 to 100 | 50 to 100 |  |  | 
CC(C)c1cc(F)ccc1NC(=S)NC(=O)NCCCCc1ccc(-c2ncn(-c3ccc(OC(F)(F)F)cc3)n2)cc1 [PC155, 1-[(4-fluoro-2-isopropyl-phenyl)carbamothioyl]-3-[4-[4-[1-[4-(trifluoromethoxy)phenyl]-1H-1,2,4-triazol-3-yl]phenyl]butyl]urea] |  |  |  |  | pest or weed control at 50 µg/cm2 ([1]; Table ABC (PC)): 50 to 100%; pest or weed control at 50 µg/cm2 ([2]; Table ABC (PC)): 50 to 100%
CC(C)c1cc(F)ccc1NC(=S)NC(=O)NCc1cccc(-c2ncn(-c3ccc(OC(F)(F)F)cc3)n2)c1 [FB24, 1-[(4-fluoro-2-isopropyl-phenyl)carbamothioyl]-3-[[3-[1-[4-(trifluoromethoxy)phenyl]-1H-1,2,4-triazol-3-yl]phenyl]methyl]urea] |  |  | 50 to 100 | 50 to 100 | 
CC(C)c1ccccc1N1C(=O)CS/C1=N\C(=O)NCc1ccc(-c2ncn(-c3ccc(OC(F)(F)C(F)(F)F)cc3)n2)cc1 [F18, (Z)-1-(3-(2-isopropylphenyl)-4-oxothiazolidin-2-ylidene)-3-(4-(1-(4-(perfluoroethoxy)phenyl)-1H-1,2,4-triazol-3-yl)benzyl)urea] | 50 to 100 | 50 to 100 |  |  | 
Cc1ccc(C(C)C)c(NC(=S)NC(=O)NCc2cccc(-c3ncn(-c4ccc(OC(F)(F)F)cc4)n3)c2)c1 [FB25, 1-[(2-isopropyl-5-methyl-phenyl)carbamothioyl]-3-[[3-[1-[4-(trifluoromethoxy)phenyl]-1H-1,2,4-triazol-3-yl]phenyl]methyl]urea] |  |  | 50 to 100 | 50 to 100 | 
Cc1ccccc1N1C(=O)CS/C1=N\C(=O)NCc1ccc(-c2ncn(-c3ccc(OC(F)(F)F)cc3)n2)cc1 [P1, (Z)-1-(4-oxo-3-(o-tolyl)thiazolidin-2-ylidene)-3-(4-(1-(4-(trifluoromethoxy)phenyl)-1H-1,2,4-triazol-3-yl)benzyl)urea] | 50 to 100 | 50 to 100 |  |  | 
CCc1ccccc1NC(=S)NC(=O)NCCCCc1cccc(-c2ncn(-c3ccc(OC(F)(F)F)cc3)n2)c1 [PC171, 1-[(2-ethylphenyl)carbamothioyl]-3-[4-[3-[1-[4-(trifluoromethoxy)phenyl]-1H-1,2,4-triazol-3-yl]phenyl]butyl]urea] |  |  |  |  | pest or weed control at 50 µg/cm2 ([1]; Table ABC (PC)): 0 to 50%; pest or weed control at 50 µg/cm2 ([2]; Table ABC (PC)): 50 to 100%
CC(C)c1ccccc1N1C(=O)CS/C1=N\C(=O)NCCCc1cccc(-c2ncn(-c3ccc(OC(F)(F)F)cc3)n2)c1 [P120, (Z)-1-(3-(2-isopropylphenyl)-4-oxothiazolidin-2-ylidene)-3-(3-(3-(1-(4-(trifluoromethoxy)phenyl)-1H-1,2,4-triazol-3-yl)phenyl)propyl)urea] | 50 to 100 | 50 to 100 |  |  | 
COc1ccc(N2C(=O)CS/C2=N\C(=O)NCCCc2ccc(-c3ncn(-c4ccc(OC(F)(F)F)cc4)n3)cc2)c(C)c1 [P105, (Z)-1-(3-(4-methoxy-2-methylphenyl)-4-oxothiazolidin-2-ylidene)-3-(3-(4-(1-(4-(trifluoromethoxy)phenyl)-1H-1,2,4-triazol-3-yl)phenyl)propyl)urea] | 50 to 100 | 50 to 100 |  |  | 
